Results from patent US20110020849A1, “BIOMARKERS FOR DIAGNOSTIC AND THERAPEUTIC METHODS” (Wayne State University, priority 2007, published 2011).

What was measured:
[1] = tested on: rabbit RBCs; test: Deformation-induced ATP release from rabbit RBCs pumped through microbore tubing (luciferin/luciferase chemiluminescence); format: cell-based
Experimental: (§1) Preparation of RBCs. Rabbits (New Zealand whites, males, 2.0-2.5 kg) were anesthetized with ketamine ([…], i.m.) and xylazine (1 mg/kg, i.m.) followed by pentobarbital sodium (15 mg/kg i.v.). A cannula was placed in the trachea and the animals were ventilated with room air. A catheter was placed into a carotid artery for administration of heparin and for phlebotomy. After heparin (500 units, i.v.), the animals were exsanguinated. Human blood was obtained by venipuncture without the use of a tourniquet (antecubital fossa) and collected into a heparinized syringe. Blood was centrifuged at 500×g at 4° C. for 10 min. The plasma and buffy coat were discarded. The RBCs were resuspended and washed three times in a physiological salt solution [PSS, containing in mM: 4.7 KCl, 2.0 CaCl2, 140.5 NaCl […], 21.0 tris(hydroxymethyl)aminomethane, 11.1 dextrose with 5% bovine serum albumin (final pH 7.4)]. Cells were prepared on the day of use and experiments were finished within 8 hours of removal from the animal or human subjects. All procedures were approved by the Animal Investigation Committee or the Human Investigation Committee at Wayne State University.
(§2) Measurement of ATP. Human C-peptide (American Peptide Co., Sunnyvale, Calif.), 0.25 mg (MW=3020 g/mol), was dissolved in […] of purified water (18.2 megaohm) to yield a concentration of 83 μM. […] The resulting chemluminescence reaction flowed through a final potion of fused-silica microbore tubing that was placed over a photomultiplier tube, where the emission was detected. The resultant current was measured as a potential by a data acquisition board operated by a program written with the LabView software package (National Instruments, Austin, Tex.).
Introduction. […] Upon deformation in the tubing, the RBCs release ATP that is measured using a well-established chemiluminescence assay for ATP. The concentrations of RBC-derived ATP are measured in the presence and absence of synthetic C-peptide.
C-Peptide-Induced Release of ATP. RBCs obtained from rabbits are pumped through microbore tubing having an inside diameter of 50 μm and the resultant ATP released by the cells upon deformation in the tubing is measured. […] Another aliquot from the same RBC sample is incubated in 1 nM C-peptide and the resultant ATP release measured every 2 h for a period up to 6 h. […] As shown, the ATP release (determined by a chemiluminescence assay) from those cells incubated in the c-peptide increased approximately 2.9 times over a period of […]. […] If cell lysis were occurring, the glybenclamide would have no affect on the measured ATP as it would be present in extracellular form whether or not glybenclamide was introduced to the RBCs. […]

[2] = tested on: diabetic human RBCs; test: ATP release from RBCs of patients with type II diabetes; format: cell-based; details: n=7; for ATP release: diabetic human RBCs, ±SEM, FIG. 2
Experimental: as §1
as §2, with “μM. Next, an appropriate volume of this C-peptide solution was added to 10 mL of a 7% solution of RBCs to create a solution containing the C-peptide at concentrations in the 1-5 nM range.” for “μM.”, “Tex.). […]” for “Tex.).”

[3] = tested on: RBCs; test: Loss of ATP-release bioactivity of C-peptide preparation in water (repeats of Experiments 1 and 2); format: cell-based
[4] = tested on: RBCs; test: Cell lysis control: RBC solutions measured under non-flow conditions with a luminometer; format: cell-based; details: 200 μL RBC solution and 200 μL luciferin/luciferase solution
Experimental: To ensure that the resulting increase in ATP release was due to C-peptide interacting with the RBCs and not cell lyses, the RBC solutions were measured under non-flow conditions using a luminometer with 200 μL of the RBC solution and 200 μL of the luciferin/luciferase solution. […] To ensure that lysis was not occurring in the tubing, a solution of 0.01 M glybenclamide was prepared by adding 49 mg of glybenclamide (Sigma) to 2 mL of a 0.1 M solution of sodium hydroxide. To this, 7.94 mL of a dextrose solution (1 g dextrose in 20 mL of purified water) was added. The mixture was heated carefully to 52° C. until all of the glybenclamide was dissolved. Once the solute was completely dissolved, 1 mL of this solution was added to 9 mL of PSS, resulting in a solution with a concentration 0.001 M. From this diluted solution, 2.5 mL were added to 2.5 mL of 7% hematocrit RBC solution, resulting in a 3.5% hematocrit solution of RBCs. This solution was allowed to incubate for 15 minutes. As a comparison, 2.5 mL of wash buffer without glybenclamide was added to 2.5 mL of 7% hematocrit RBCs. After 15 minutes, the RBC solutions were assayed.

[5] = Electrospray ionization mass spectrometry of C-peptide and metal adducts in aqueous solution; details: ESI-MS
Experimental: Mass Spectrometric Analysis of Metal-Peptide Binding.
Specifically, the mass spectrum shown in FIG. 3a is that of peptide prepared in water and analyzed within 0.5 h of preparation. In 3a, the [M+3H]^3+ peak is present as are other forms of the peptide with sodium atoms, potassium atoms, or a combination thereof.

Question: Which “effect on the C-peptide-induced increase in ATP release” value ([1]; RBCs incubated in glybenclamide) does the source give for COc1ccc(Cl)cc1C(=O)NCCc1ccc(S(=O)(=O)NC(=O)NC2CCCCC2)cc1 [glybenclamide] here?
Answer: can be inhibited

Question: With C-peptide as the molecule, how does the “ability to induce ATP release from deformed RBCs” value ([1]; C-peptide solution kept at 4° C. for >30 days) read?
Answer: no longer has the ability to induce ATP release from deformed RBCs

Question: And the “increase in ATP release” value ([1]; rabbit RBCs, 1 nM C-peptide, over a period of 8 h, normalized values, FIG. 1)?
Answer: approximately 2.9 times

Question: And the “increase in ATP release versus control (buffer without C-peptide)” value ([1]; rabbit RBCs, 1 nM C-peptide, over the 6 h period)?
Answer: nearly three times that of the RBCs incubated with a control

Question: What about the “restoration of ATP release levels” value ([2]; RBCs of patients with type II diabetes, compared with healthy non-diabetic controls) of the same molecule?
Answer: restore these release levels to a value that is statistically equivalent to that of healthy, non-diabetic control patients

Question: What about the ATP release ([2]; after 6 hours of incubation with freshly prepared C-peptide preparation) of the same molecule?
Answer: 256.1 ± 38.7 nM

Question: And the ATP release ([2]; at 0 hours, freshly prepared C-peptide preparation)?
Answer: 63.6 ± 12.6 nM

Question: And the “time to loss of bioactivity after preparation in water” value [3]?
Answer: 24 to 36 h

Question: What about the “luminescence signal under non-flow conditions (cell lysis check)” value [4] of the same molecule?
Answer: No detectable signals were obtained

Question: What about the “time in solution without degradation or cleavage” value [5] of the same molecule?
Answer: > 30 days
